Key:
Trypanosoma cruzi [1] = experiment: (§1) GSK_TCAKS: pIC50 H2C9 Imaging: H9c2 Host Cardiomyocytes. […] Cells were then washed once with PBS before infection. T. cruzi trypomastigotes, collected at days 5 to 8 after infection from LLC-MK2 parasite infected cultures, were allowed to swim out for 4h at 37C from a centrifuged pellet (2,500 rpm/10 min/room temperature). Trypomastigotes were then collected and counted in a CASY Cell Counter. Trypomastigotes, in supplemented DMEM, were added to H9c2 cultures in a multiplicity of infection of 1 and incubated for 18 h. Cells were washed once with PBS before incubation of the infected H9c2 monolayer with trypsin (Life-Technologies) to detach cells from the flask. Cells were counted in a CASY Cell Counter using a 150 um capillary and their density set at 5 * 10^4 cells per mL in supplemented assay DMEM. Infected H9c2 were dispensed into 384-well poly-lysine coated assay plates at 50uL per well using a Multidrop Combi dispenser. After seeding them, the plates were incubated at 37C, 5% CO2 for 72h. Cultures were then fixed and stained by addition of 50 uL of a solution containing 8% formaldehyde and 4 uM DRAQ5 DNA dye (BioStatus, UK) per well. […] Five images were collected per well for reliable statistical analysis. Automated image analysis was performed with a script developed on Acapella High Content Imaging and Analysis Software (PerkinElmer). Output: Number of H9c2 Host Cardiomyocytes nuclei to determine drug-related cytotoxicity.; assay type: functional, organism-based, Rattus norvegicus; conditions: H9c2, 4 h
Leishmania donovani [2] = experiment: GSK_TCAKS: pIC50 Leishmania donovani viability assay using fluorescence intensity. Assay plates (1536-well) were prepared by adding 30nL per well of compound. For single shot assay, the final compound concentration was 5uM. […] Briefly, eGFP LdBOB axenic amastigotes were harvested, fixed and counted in a CASY cell counter (Roche-Applied Science). A final concentration of 1.5 * 10^5 cells per well were prepared in amastigote media containing 500 U/mL penicillin/streptomycin (Invitrogen) and 6uL was dispensed to each experimental well using a Multidrop Combi dispenser (Thermo Scientific). 6uL of assay media was dispensed to control columns used as reference for 100% compound response. Following incubation for 72 h at 37C, 5% CO2, 2 uL of resazurin was added to each well at a final concentration of 0.5 mM in phosphate buffered saline (PBS) with IGEPAL (Sigma-Aldrich), 0.05% (v/v).; assay type: functional, organism-based
Trypanosoma cruzi [3] = experiment: as §1, with “Trypanosoma cruzi” for “H2C9”, “Infected Cells.” for “H9c2 Host Cardiomyocytes.”, “percentage” for “Number”, “infected cells per well as a second infection marker.” for “H9c2 Host Cardiomyocytes nuclei to determine drug-related cytotoxicity.”; assay type: functional, organism-based, Rattus norvegicus; conditions: H9c2, 4 h
[4] = target: Sterol 14-alpha demethylase (Trypanosoma cruzi (strain CL Brener), UniProt Q7Z1V1); experiment: GSK_TCAKS: pIC50 CYP51 from Trypanosoma cruzi.; assay type: functional
[5] = system: Trypanosoma brucei brucei; experiment: GSK_TCAKS: pIC50 Trypanosoma brucei viability assay using luminiscence. Assay plates (1536-well) were prepared. T. brucei cultures were harvested and counted in a CASY cell counter. A parasite suspension was prepared at a final concentration of 5 * 10^4 cells/mL in complete HMI9 medium and 6uL was dispensed to all wells containing compounds using a Multidrop Combi dispenser. 6uL of HMI9 media with 0.4% DMSO were dispensed to control columns. Plates were incubated for 24 h at 37C, 5% CO2 then tempered for 10 min at room temperature. ATP content was quantified by adding 4 uL of CellTiter-Glo Reagent (Promega) according to the manufacturer's instructions. Luminescence was measured using a ViewLux.; assay type: functional, organism-based; conditions: Lister 427, CASY
Leishmania donovani [6] = experiment: (§2) GSK_TCAKS: pIC50 Leishmania donovani Imaging: THP-1 Host Macrophages. Assay plates (384-well) were prepared by adding 250nL of compound to each well. For single shot assay, the final compound concentration was 5 uM. […] Automated image analysis was performed with a script developed on Acapella High Content Imaging and Analysis Software (PerkinElmer). Output: THP-1 cell count were reported for each well.; assay type: functional, organism-based, Homo sapiens
Leishmania donovani [7] = experiment: as §2, with “Infected” for “THP-1 Host”, “Percent of infected macrophage cells” for “THP-1 cell count”; assay type: functional, organism-based, Homo sapiens; conditions: THP-1
[8] = system: Trypanosoma brucei brucei; experiment: GSK_TCAKS: pIC50 Trypanosoma brucei viability assay using fluorescence intensity. Assay plates (1536-well) were prepared by dispensing 25nL of compound solution per well using an Echo acoustic dispenser (Labcyte).; assay type: functional, organism-based; conditions: Lister 427, 2 h
[9] = GSK_TCAKS: pIC50 HepG2 human cell line viability assay using luminiscence. […] Seeding density was checked to ensure that new mono-layers were not more than 50% confluent at the time of harvesting. Cell suspension was added to 500 mL of the same medium at a final density of 1.2 * 10^5 cells/mL. This cell suspension was dispensed (25 uL, 3000 cells per well) into 384-well clear-bottom plates using a Multidrop Combi dispenser. Prior to addition of the cell suspension, the screening compounds (250 nL) were pre-dispensed into the plates with an Echo liquid handler. Plates were incubated for 48 h at 37C, 5% CO2. After incubation, plates equilibrated at room temperature for 30 min before proceeding to develop the luminescent signal. The signal developer, CellTiter-Glo Reagent, was allowed to equilibrate at room temperature for 30 min and added to the plates (25uL per well) using a Multidrop Combi dispenser. Plates were left for 10 min at room temperature for stabilization and then read using a ViewLux.; assay type: toxicity, cell-based
Trypanosoma cruzi [10] = experiment: as §1, with “Trypanosoma cruzi” for “H2C9”, “Amastigotes/Cell.” for “H9c2 Host Cardiomyocytes.”, “number” for “Number”, “amastigotes per cell as infection level measurement.” for “H9c2 Host Cardiomyocytes nuclei to determine drug-related cytotoxicity.”; assay type: functional, organism-based, Rattus norvegicus; conditions: H9c2, 4 h
Leishmania donovani [11] = experiment: as §2, with “Amastigotes/Macrophages.” for “THP-1 Host Macrophages.”, “Average number of amastigotes per macrophage” for “THP-1”, “cell” for “cell count”; assay type: functional, organism-based, Homo sapiens; conditions: THP-1
Trypanosoma cruzi [12] = experiment: GSK_TCAKS: pIC50 Trypanosoma cruzi viability assay using beta-GAL activity. This assay was run at single shot at 5uM compound concentration per well. The biological reagents consisted of NIH-3T3 host cells and trypomastigotes parasitic cells; both cell types were set to a 3.3 * 10^5 cells/mL dilution in assay DMEM by means of a CASY cell counter device using a 60um capillary. 6 uL of the mixture were dispensed per well (about 1 * 10^3 host-cells and 1 * 10^3 parasites) with a Multidrop Combi dispenser. […] In all wells, the percentage of DMSO never exceeded 0.5%. Plates incubated for four days at 37C, 5% CO2. The substrate used for the assay fluorescence intensity (FLINT) readout was resorufin-beta-D-galactopiranoside (Sigma-Aldrich) at 5uM per well. It was diluted in PBS supplemented with the soft detergent Igepal (Fluka).; assay type: functional, organism-based, Mus musculus; conditions: Tulahuen, NIH3T3

Sequence of Sterol 14-alpha demethylase (Q7Z1V1 whole entry): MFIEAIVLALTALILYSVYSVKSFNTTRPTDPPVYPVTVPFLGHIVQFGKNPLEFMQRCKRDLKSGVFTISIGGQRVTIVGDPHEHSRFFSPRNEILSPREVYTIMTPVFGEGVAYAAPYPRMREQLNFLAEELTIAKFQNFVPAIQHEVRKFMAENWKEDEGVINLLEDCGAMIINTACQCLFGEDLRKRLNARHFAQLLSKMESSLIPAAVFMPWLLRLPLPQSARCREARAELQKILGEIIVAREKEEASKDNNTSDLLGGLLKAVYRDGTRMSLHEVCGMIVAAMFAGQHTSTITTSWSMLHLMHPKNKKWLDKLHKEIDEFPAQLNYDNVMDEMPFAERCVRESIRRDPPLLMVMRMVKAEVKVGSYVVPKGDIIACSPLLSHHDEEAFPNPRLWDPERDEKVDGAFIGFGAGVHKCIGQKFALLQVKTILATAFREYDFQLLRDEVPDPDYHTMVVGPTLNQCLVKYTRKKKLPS

| Compound | IC50 (Trypanosoma cruzi [1]) [µM] | IC50 (Leishmania donovani [2]) [µM] | IC50 (Trypanosoma cruzi [3]) [µM] | IC50 [4] [µM] | IC50 [5] [µM] | IC50 (Leishmania donovani [6]) [µM] | IC50 (Leishmania donovani [7]) [µM] | IC50 [8] [µM] | IC50 at 48 h [9] [µM] | IC50 (Trypanosoma cruzi [10]) [µM] | IC50 (Leishmania donovani [11]) [µM] | IC50 (Trypanosoma cruzi [12]) [µM] |
| --- | --- | --- | --- | --- | --- | --- | --- | --- | --- | --- | --- | --- |
| Cc1ccc(NC(=O)c2ccnc(N3CCCC3)c2)cc1-c1ccsc1C(N)=O | > 50.1 | > 50.1 | 12.6 | 1.26 | 0.0631 | > 50.1 | > 50.1 | 0.0631 | > 100 | 7.94 | > 50.1 | 12.6 |
| Cc1nc(-c2ccc3c(c2)OCO3)sc1C(=O)NCc1ccc2c(c1)OCO2 | > 50.1 | 2 | 0.794 | 5.01 | > 39.8 | > 50.1 | 0.251 | 10 | > 100 | 0.501 | 0.794 | 3.55 |
| Cc1cc(C)n(-c2nc(NC(C)(C)C)nc(N3CCOCC3)n2)n1 | 1.26 | 6.31 | 10 | > 100 | 3.98 | > 50.1 | 7.94 | 12.6 | 100 | 3.16 | 3.98 | 5.01 |
| CN1C(=O)c2ccccc2Sc2ccc(NC(=O)NCc3ccco3)cc21 | 25.1 | > 50.1 | 12.6 | 31.6 | 0.501 | > 50.1 | > 50.1 | 0.398 | > 100 | 6.31 | 25.1 | 10 |
| CC(=O)Nc1ccc(-c2ccnc(Nc3cccc(C#N)c3)n2)cc1 | 12.6 | 39.8 | 6.31 | 25.1 | 0.794 | 10 | 15.8 | 0.631 | > 100 | 3.16 | 10 | 6.31 |
| O=C(NCCCn1cnc2ccccc21)c1ccc(NC(=O)c2ccco2)cc1 | > 50.1 | 1.26 | 2 | 15.8 | 0.251 | > 50.1 | > 50.1 | 0.2 | 15.8 | 1.26 | 12.6 | 3.98 |
| CCN(Cc1cccs1)C(=O)CSc1nnc(-c2ccc3c(c2)OCO3)o1 | > 50.1 | 3.16 | 2.51 | 7.94 | > 39.8 | > 50.1 | 2 | 25.1 | > 100 | 1.58 | 2 | 3.98 |
| C=CCN(Cc1cccs1)C(=O)CSc1nnc(-c2ccc3c(c2)OCO3)o1 | > 50.1 | 6.31 | 0.631 | 7.94 | 39.8 | > 50.1 | 3.16 | 20 | > 100 | 0.501 | 1.26 | 6.31 |
| N#Cc1cnc(Nc2cccc(CCN3CCOCC3)c2)nc1Nc1ccccc1C(N)=O | 0.0126 | 2.51 | 3.16 | 10 | 0.251 | 0.794 | 1.58 | 0.0631 | 25.1 | 2 | 1 | 1.26 |

Reference: ChEMBL document CHEMBL3430912, “GSK Tres Cantos Anti-Kinetoplastid Screening (TCAKS) Data”
